Tests used:
SJSA-1 cells = assay: Cell lysis by peptidomimetic macrocycles (LDH release); assay type: cell-based; conditions: 1 h at 37C
MDM2 = MDM2 (Homo sapiens, UniProt Q00987); assay: Competitive fluorescence polarization assay for MDM2; assay type: binding; conditions: competitive FP assay, MDM2; for IC50: read-out: IC50 (MDM2); for Ki: read-out: Ki (MDM2)
Caspase 3 = Caspase 3 detection assay in SJSA1 cells; assay type: cell-based; conditions: 48 h, Caspase 3 activation over DMSO-treated cells; for caspase 0.3 uM: 0.3 uM peptide; for caspase 3 uM: 3 uM peptide; for caspase 10 uM: 10 uM peptide; for caspase 30 uM: 30 uM peptide
MDMX = target: T1, MDMX (Homo sapiens, UniProt O15151); assay: Competitive fluorescence polarization assay for MDMX; assay type: binding; conditions: competitive FP assay; for IC50: read-out: IC50 (MDMX); for Ki: read-out: Ki (MDMX)
T1 sequence (O15151 1-125): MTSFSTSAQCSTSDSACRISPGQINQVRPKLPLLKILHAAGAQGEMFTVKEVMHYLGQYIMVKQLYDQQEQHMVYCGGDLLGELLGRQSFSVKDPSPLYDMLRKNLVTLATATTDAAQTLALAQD

Sequence of MDM2 (Q00987 1-125): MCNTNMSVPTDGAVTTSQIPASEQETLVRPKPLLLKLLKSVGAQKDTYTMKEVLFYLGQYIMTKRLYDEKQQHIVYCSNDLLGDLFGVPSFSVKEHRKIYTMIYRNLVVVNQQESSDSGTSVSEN

Row | Compound | 6.25 uM % Lysed cells (1 h LDH) (SJSA-1 cells) | 25 uM % Lysed cells (1 h LDH) (SJSA-1 cells) | 50 uM % Lysed cells (1 h LDH) (SJSA-1 cells) | IC50 (MDM2) | Ki (MDM2) | caspase 0.3 uM (Caspase 3) | caspase 3 uM (Caspase 3) | caspase 10 uM (Caspase 3) | caspase 30 uM (Caspase 3) | IC50 (MDMX) | Ki (MDMX)
1 | CC(=O)N[C@@H](CC(C)C)C(=O)N[C@H](C(=O)N[C@@H](Cc1ccccc1)C(=O)N[C@]1(C)CCCCCCC=CCCC[C@@](C)(C(=O)N[C@@H](CO)C(=O)N[C@H](C(=O)N[C@@H](C)C(N)=O)C(C)C)NC(=O)[C@H](CC(C)C)NC(=O)[C@H](CCC(N)=O)NC(=O)[C@H](C)NC(=O)[C@H](Cc2c[nH]c3ccccc23)NC(=O)[C@H](Cc2ccc(O)cc2)NC(=O)[C@H](C(C)C)NC1=O)[C@@H](C)O (single isomer, unassigned) [compound 139] | −2% | −1% | −1% | < 10 nM | < 10 nM | 1 | 2 | 9 | 18 | 100 to 1000 nM | 10 to 100 nM
2 | CC(=O)N[C@@H](CC(C)C)C(=O)N[C@H](C(=O)N[C@@H](Cc1ccccc1)C(=O)N[C@]1(C)CCCCCCC=CCCC[C@@](C)(C(=O)N[C@@H](CO)C(=O)N[C@H](C(=O)N[C@@H](CO)C(N)=O)C(C)C)NC(=O)[C@H](CC(C)C)NC(=O)[C@H](CCC(N)=O)NC(=O)[C@H](C)NC(=O)[C@H](Cc2c[nH]c3ccccc23)NC(=O)[C@H](Cc2ccc(O)cc2)NC(=O)[C@H](C(C)C)NC1=O)[C@@H](C)O (single isomer, unassigned) [compound 142] | 1% | 1% | 3% | < 10 nM | < 10 nM | 1 | 2 | 15 | 20 | 10 to 100 nM | 10 to 100 nM
3 | CC(=O)N[C@@H](CC(C)C)C(=O)N[C@H](C(=O)N[C@@H](Cc1ccccc1)C(=O)N[C@]1(C)CCCCCCC=CCCC[C@@](C)(C(=O)N[C@@H](CO)C(=O)N[C@@H](C)C(=O)N[C@@H](CO)C(N)=O)NC(=O)[C@H](CC(C)C)NC(=O)[C@H](CCC(N)=O)NC(=O)[C@H](C)NC(=O)[C@H](Cc2c[nH]c3ccccc23)NC(=O)[C@H](Cc2ccc(O)cc2)NC(=O)[C@H](C(C)C)NC1=O)[C@@H](C)O (single isomer, unassigned) [compound 144] | 1% | −1% | 2% | < 10 nM | < 10 nM | 1 | 4 | 10 | 16 | 100 to 1000 nM | 10 to 100 nM
4 | CC(=O)N[C@@H](CC(C)C)C(=O)N[C@H](C(=O)N[C@@H](Cc1ccc(F)c(F)c1)C(=O)N[C@]1(C)CCCCCCC=CCCC[C@@](C)(C(=O)N[C@@H](CO)C(=O)N[C@@H](C)C(=O)N[C@@H](C)C(N)=O)NC(=O)[C@H](CC(C)C)NC(=O)[C@H](CCC(N)=O)NC(=O)[C@H](C)NC(=O)[C@H](Cc2c[nH]c3ccccc23)NC(=O)[C@H](Cc2ccc(O)cc2)NC(=O)[C@H](CCC(=O)O)NC1=O)[C@@H](C)O (single isomer, unassigned) [compound 158] | 0% | −2% |  | < 10 nM | < 10 nM | 1 |  | 5 | 16.33 | 100 to 1000 nM | 10 to 100 nM
5 | CC[C@H](C)[C@H](NC(=O)[C@H](C)NC(=O)[C@H](C)NC(=O)[C@]1(C)CCCC=CCCCCCC[C@@](C)(NC(=O)[C@H](Cc2ccccc2)NC(=O)[C@@H](NC(=O)[C@H](CCC(=O)O)NC(C)=O)[C@@H](C)O)C(=O)N[C@@H](CCC(=O)O)C(=O)N[C@@H](Cc2c[nH]cn2)C(=O)N[C@@H](Cc2c[nH]c3ccccc23)C(=O)N[C@@H](C)C(=O)N[C@@H](CCC(N)=O)C(=O)N[C@@H](CC(C)C)C(=O)N1)C(=O)N[C@H](C)C(N)=O (single isomer, unassigned) [compound 175] | 3% | 1% | 0% | < 10 nM | < 10 nM | 1 | 5 | 12 | 21 | 100 to 1000 nM | 10 to 100 nM
